“And” between values parts separate entries of the source, which are not always exact repeats. Equal values may be shown once. “Also recorded” adds a separate entry of the source.
Legend:
Th17 differentiation = test: Flow cytometry, Th17 differentiation of naive CD4+ T cells (IL-17 production); format: cell-based, C57BL/6 mice; conditions: Th17-polarizing conditions; for ratio of the IL-17 production: 3 days; for Th17 cell differentiation (effect in words): up to 25 μM (Amotsangin C up to 10 μM)
Description: (§1) Naive CD4^+ T cells were sorted by magnetic bead (Miltenyi Biotec) from spleen of C57BL/6 mice (8-14 weeks). CD4^+ T cells (5×10^5 cells/well) were activated with 2 μg/ml of plate-bound anti-mouse CD3 (Biolegend, San Diego, USA), and 5 μg/ml of anti-mouse CD28 (Biolegend) into 24-well-plates. For Th17 differentiation, cells were cultured for 3 days in the presence of 1 ng/ml recombinant human transforming growth factor-β (TGF-β1, Biolegend), 50 ng/ml recombinant mouse interleukin-6 (IL-6, Biolegend), and 5 ng/ml recombinant mouse IL-23 (Biolegend), and 10 μg/ml anti-mouse interleukin-4 (IL-4, Biolegend) with or without the limonoid. For the Th1 differentiation, the cells were cultured for 3 days in the presence of 2 ng/ml recombinant mouse interleukin-2 (IL-2, Biolegend), and 20 μg/ml anti-mouse IL-4 (Biolegend) with or without indicated compounds. For the Th2 differentiation, the cells were cultured for 3 days in the presence of 2 ng/ml recombinant mouse IL-2 (Biolegend), and 20 ng/ml recombinant mouse IL-4 (Biolegend), and 20 μg/ml anti-mouse IFN-γ (Biolegend) with or without compound. For the Treg differentiation, the cells were cultured for 3 days in the presence of 1 ng/ml recombinant human TGF-β1 (Biolegend), and 5 ng/ml recombinant mouse IL-2 (Biolegend) with or without indicated compounds.
(§2) For polarization of Th17, the cells were re-stimulated in complete RPMI 1640 containing 50 ng/ml PMA, 1 μg/ml ionomycin, and 1× Brefeldin A (Biolegend) for 4 h. For polarization of Th1 and Th2, the cells were re-stimulated in complete RPMI 1640 containing 50 ng/ml PMA and 1 μg/ml ionomycin. After 1 h of incubation, 1× Monensin (Biolegend) was added and incubated for 4 h. The cells were collected and washed with Staining Buffer (BD Biosciences, New Jersey, USA), and then stained with PerCP/Cy5.5 anti-mouse CD4 (Biolegend). And then the cells were fixed for 15 min with fixation buffer (BD Biosciences), permeabilized with BD Wash buffer (1×; BD Biosciences), and stained with PE anti-mouse IL-17A (Biolegend), FITC anti-mouse IFN-γ (Biolegend), and APC anti-mouse IL-4 (Biolegend) or APC anti-mouse Foxp3 (eBioscience). The cells were analyzed by BD FACS Aria III, and the acquired data were analyzed using FlowJo software.

ROR-γt protein = test: Western blotting of ROR-γt expression in ROR-γt-plasmid transfected HEK293 cells; format: cell-based, human; conditions: 24 h
Description: The transfection assay is preformed according to the manufacturer's instruction of lipofectamine LTX (invitrogen, USA). In brief, HEK293 cells obtained from the American Type Culture Collection (ATCC, Manassas, Va., USA) were seeded in 1.5 ml of DMEM growth media plus 10% FBS at 5×10^5 cells per well. Five hundred micro liter Opti-MEM Reduced Serum Media containing 1.25 μg of DNA was added to the cells to be transfected, and then 1.25 μl of PLUS was added into the above diluted Opti-MEM:DNA solution, gently mixed and incubated for another 5 min at room temperature. Subsequently, lipofectamine LTX™ Reagent was added into the above solution, mixed gently and then incubated 30 min at room temperature to form DNA-lipofectamine LTX Reagent complexes. Finally, 500 μl of the DNA-lipofectamine LTX Reagent complexes was directly added to each well containing cells and mixed gently. The cells were incubated at 37° C. in a CO2 incubator for another 24 h.
After incubated for 24 h, the transfected HEK293 cells were treated with different concentrations of Amotsangin A, B, C or D for another 24 h. Then the cells were lysed with RIPA buffer containing 1× protease inhibitor mix (Roche, USA) to harvest total cellular proteins, and the protein concentration was calculated by the bicinchoninic acid (BCA) kit (Pierce, Rockford, Ill.). The total cellular proteins were then subjected to electrophoresis in 10% SDS/PAGE and transferred to nitrocellulose membranes. After blocking with 5% non-fat milk in a Tris-buffered saline-0.1% Tween-20 buffer (TBST), the membrane was subsequently incubated with specific primary antibodies (RORγt antibody (eBioscience, San Diego, USA) or β-actin antibody (Santa Cruz, USA)) and HRP-conjugated secondary antibodies. A chemiluminescence (ECL) detection system was used to detect the antibody-bound proteins on the membrane.

[1] = system: human peripheral blood mononuclear cells (PBMCs); test: Cell viability (MTT) assay of human PBMCs; format: cell-based; conditions: concentration of up to 50 μM, 72 h
Description: Human peripheral blood mononuclear cells have been isolated from buffy coat. In brief, the buffy coat provided by Macao Blood Transfusion Centre was mixed with normal saline, and then added to 50 mL centrifuge tube containing Ficoll-Pague plus (Amersham Biosciences). The mixture was separated into several layers after centrifuged at 350 g for 35 min. The layer of mononuclear cells has been collected, and then washed twice by normal saline. These cells were be used for the experiments.
Human PBMCs (1×10^5/well) were cultured in 96-well plates in triplicate in RPMI 1640 medium (Gibco, Paisley, UK) with 10% fetal bovine serum (FBS; Gibco), penicillin (100 units/mL) and streptomycin (100 μg/mL), and different concentration of Amotsangin A, B, C and D were added for 72 h. MTT (5 mg/mL) was added to the cells followed by 4 h incubation, followed by addition of solvent (10% sodium dodecyl sulfate (SDS), 50% N, N-dimethyl formamide, pH 7.2) to dissolve the purple precipitate. The absorbance was recorded on a Microplate UV/VIS Spectrophotometer (TECAN, Switzerland) at 570 nm wavelength on the following day. The percentage of cell viability was calculated using the following formula: Cell viability (%)=(ODtreated−ODblank)/(ODcontrol−ODblank)×100.

[2] = system: ROR-γt luciferase reporter activity; test: Lightswitch luciferase reporter assay (ROR Gamma T LUCPorter stable reporter HEK293 cells); format: cell-based; conditions: 16 h
Description: ROR Gamma T LUCPorter™ Stable Reporter cells and LUCPorter™ Vector Control HEK293 cells (Imgenex) were plated in 96-well plates at 5×10^4 cells/well in triplicate in RPMI 1640 medium with 10% fetal bovine serum, penicillin (100 units/mL), streptomycin (100 μg/mL) and puromycin (3 μg/mL) over night. […] Then the complete mixture of luciferase assay reagent (Biocompare, Texas, USA) has been added to the wells and the mixture has been incubated for 30 min at room temperature in the dark. The mixture has been transferred into a 96 well white plates before reading. Finally, each well was read for 2 seconds in a plate luminometer on a Microplate UV/VIS Spectrophotometer (TECAN, Switzerland). Data are obtained from three independent experiments.

Th1 differentiation = test: Flow cytometry, Th1 differentiation of naive CD4+ T cells (IFN-γ production); format: cell-based, C57BL/6 mice; conditions: for ratio of the IFN-γ producing Th1 differentiation: Th1-polarizing conditions, 3 days
Description: as §1, §2

Treg differentiation = test: Flow cytometry, Treg differentiation of naive CD4+ T cells (Foxp3 production); format: cell-based, C57BL/6 mice; conditions: for Foxp3 producing Treg differentiation: Treg-polarizing conditions, 3 days
Description: as §1, §2

Th2 differentiation = test: Flow cytometry, Th2 differentiation of naive CD4+ T cells (IL-4 production); format: cell-based, C57BL/6 mice; conditions: for ratio of the IL-4 producing Th2 differentiation: Th2-polarizing conditions, 3 days
Description: as §1, §2

Row | Structure (SMILES) | ratio of the IL-17 production (Th17 differentiation; 25 μM) [%] | Th17 cell differentiation (effect in words) (Th17 differentiation) | expression of ROR-γt protein (ROR-γt protein; 5 to 50 μM) | cytotoxicity on human PBMCs [1] | ROR-γt luciferase reporter activity ([2]; 5 to 50 μM) | Th1 cell differentiation (effect in words) (Th1 differentiation; 25 μM) | ratio of the IFN-γ producing Th1 differentiation (Th1 differentiation; 25 μM) | Treg cell differentiation (effect in words) (Treg differentiation; 25 μM) | Th2 cell differentiation (effect in words) (Th2 differentiation; 25 μM) | ratio of the IL-4 producing Th2 differentiation (Th2 differentiation; 25 μM) [%] | ratio of the IL-17 production (Th17 differentiation; 10 μM) [%] | expression of ROR-γt protein (ROR-γt protein; 1 to 25 μM) | ROR-γt luciferase reporter activity ([2]; 1 to 25 μM) | Th1 cell differentiation (effect in words) (Th1 differentiation; 10 μM) | ratio of the IFN-γ producing Th1 differentiation (Th1 differentiation; 10 μM) | Treg cell differentiation (effect in words) (Treg differentiation; 10 μM) | Foxp3 producing Treg differentiation (Treg differentiation; 10 μM) [%] | Th2 cell differentiation (effect in words) (Th2 differentiation; 10 μM) | ratio of the IL-4 producing Th2 differentiation (Th2 differentiation; 10 μM) | Foxp3 producing Treg differentiation (Treg differentiation; 25 μM) [%]
1 | C=C1[C@@H]([C@@]2(C)C=CC(=O)OC(C)(C)[C@@H]2CC(=O)OC)[C@@H](OC(C)=O)[C@H](OC(=O)C(C)CC)[C@@]2(C)[C@H](c3ccoc3)C[C@H]3O[C@]132 (stereo partly drawn) [Amotsangin A] | 4.28 | can suppress | dose-dependently reduced; also recorded: reduces | no significant cytotoxicity | dose-dependently reduced; also recorded: inhibits | no inhibitory effect | could not be changed | no inhibitory effect | no inhibitory effect | 14.8 |  |  |  |  |  |  |  |  |  | 
2 | C=C1[C@@H]([C@@]2(C)C=CC(=O)OC(C)(C)[C@@H]2CC(=O)OC)[C@@H](OC(C)=O)[C@H](OC(=O)C(C)C)[C@@]2(C)[C@H](c3ccoc3)C[C@H]3O[C@]132 [Amotsangin B] | 1.08 | can suppress | reduces | no significant cytotoxicity | dose-dependently reduced; also recorded: inhibits | can inhibit | 2.02% | no effect; also recorded: not effect | can inhibit | 4.11 |  |  |  |  |  |  |  |  |  | 
3 | C=C1[C@@H]([C@@]2(C)C=CC(=O)OC(C)(C)[C@@H]2CC(=O)OC)[C@@H](OC(C)=O)[C@H](OC(=O)C(O)C(C)CC)[C@@]2(C)[C@H](c3ccoc3)C[C@H]3O[C@]132 (stereo partly drawn) [Amotsangin C] |  | can suppress |  | no significant cytotoxicity |  |  |  |  |  |  | 1.91 | reduced | dose-dependently reduced; also recorded: reduces | inhibits; also recorded: can inhibit | 10.2% | inhibits | 8.49 | inhibits | 8.7% | 
4 | C=C1[C@@H]([C@@]2(C)C=CC(=O)OC(C)(C)[C@@H]2CC(=O)OC)[C@@H](OC(C)=O)[C@H](OC(=O)CC)[C@@]2(C)[C@H](c3ccoc3)C[C@H]3O[C@]132 [Amotsangin D] | 1.59 | can suppress | reduces | no significant cytotoxicity | dose-dependently reduced; also recorded: reduces | no inhibitory effect; also recorded: slight inhibitory effect | 14.6% | no inhibitory effect | could inhibit | 11.9 |  |  |  |  |  |  |  |  |  | 13.7
5 | C[C@H]1O[C@@H](O[C@H]2[C@@H](O)C[C@H](O[C@H]3[C@@H](O)C[C@H](O[C@H]4CC[C@@]5(C)[C@H](CC[C@@H]6[C@@H]5C[C@@H](O)[C@]5(C)[C@@H](C7=CC(=O)OC7)CC[C@]65O)C4)O[C@@H]3C)O[C@@H]2C)C[C@H](O)[C@@H]1O [digoxin, reference compound] |  |  |  |  |  |  |  |  |  |  | 5.43 |  |  |  | 10.8% and 15.3% and 17.0% |  |  |  | 15.0% and 10.2% | 
